Series [1] deals with larvae of the army worm (Spodoptera frugiperda). In words: Spodoptera Frugiperda Test. The series is classed as in vivo. The following applies: active compound concentration 0.1%; dipped cabbage leaves; after 7 days. Here is the method:
Spodoptera Frugiperda Test
(§1) Solvent: 7 parts by weight of dimethylformamide
(§2) Emulsifier: 1 part by weight of alkylaryl polyglycol ether
To produce a suitable preparation of active compound, 1 part by weight of active compound is mixed with the stated amounts of solvent and emulsifier, and the concentrate is diluted with water to the desired concentration.
Cabbage leaves (Brassica oleracea) are treated by being dipped into the preparation of active compound of the desired concentration and are populated with larvae of the army worm (Spodoptera frugiperda) whilst the leaves are still moist.
After the desired period of time, the kill in % is determined. 100% means that all larvae have been killed; 0% means that none of the larvae has been killed.

Series [2] has as its system peach aphid (Myzus persicae). The series is described as follows: Myzus Test. The series is classed as in vivo. The following applies: active compound concentration 0.1%; dipped cabbage leaves; after 6 days. As to the method: as §1, §2
(§3) To produce a suitable preparation of active compound, 1 part by weight of active compound is mixed with the stated amount of solvent, and the stated amount of emulsifier, and the concentrate is diluted with water to the desired concentration.
Cabbage leaves (Brassica oleracea) which are heavily infested by the peach aphid (Myzus persicae) are treated by being dipped into the preparation of active compound of the desired concentration.
(§4) After the desired period of time, the kill in % is determined. 100% means that all aphids have been killed; 0% means that none of the aphids has been killed.

Series [3] relates to mustard beetle larvae (Phaedon cochleariae). In words: Phaedon larvae Test. The series is classed as in vivo. The following applies: active compound concentration 0.1%; dipped cabbage leaves; after 7 days. Here is the method: as §1, §2
To produce a suitable preparation of active compound, 1 part by weight of active compound is mixed with the stated amount of solvent and the stated amount of emulsifier, and the concentrate is diluted with water to the desired concentration.
Cabbage leaves (Brassica oleracea) are treated by being dipped into the preparation of active compound of the desired concentration and are populated with mustard beetle larvae (Phaedon cochleariae) whilst the leaves are still moist.
After the desired period of time, the kill in % is determined. 100% means that all beetle larvae have been killed; 0% means that none of the beetle larvae has been killed.

Series [4] concerns Aphis fabae. In words: Critical Concentration Test/root-systemic Action. The series is classed as in vivo. The following applies: 20 ppm in soil; broad beans; leaves populated after 7 days, evaluation after a further 6 days. As to the method: Critical Concentration Test/root-systemic Action
Solvent: 4 parts by weight of acetone
as §2
To produce a suitable preparation of active compound, 1 part by weight of active compound is mixed with the stated amount of solvent, the stated amount of emulsifier is added and the concentrate is diluted with water to the desired concentration.
The preparation of active compound is mixed intimately with soil. The concentration of the active compound in the preparation is virtually immaterial, only the amount by weight of active compound per volume unit of soil, which is stated in ppm (=mg/l), matters. The treated soil is filled into pots which are planted with pregerminated broad beans. Thus, the active compound can be taken up from the soil by the plant roots and transported into the leaves.
After a further 6 days, evaluation is carried out by counting or estimating the dead animals. The root-systemic action of the active compound is deduced from the number of animals killed. It is 100% when all test animals have been killed and 0% when the number of live test insects is identical to that of the untreated control.

The test system of series [5] is Mosquito larvae (Aedes aegypti). The series is described as follows: Aedes Test. The series is classed as in vivo. The following applies: active compound concentration 0.0016%; after 4 hours. Here is the method:
Solvent: 1000 parts by weight of methanol
To produce a suitable preparation of active compound, 1 part by weight of active compound is mixed with the stated amount of solvent, and the concentrate is diluted with water to the desired concentrations.
Mosquito larvae (Aedes aegypti) are placed into the preparation of active compound of the desired concentration.
After the desired period of time, the effect on the larvae is determined.

Series [6] concerns black bean aphid (Aphis fabae). The series is described as follows: Aphis Test (Systemic Action). The series is classed as in vivo. Conditions: active compound concentration 0.01%, watering of Vicia faba, after 4 days. As to the method: Aphis Test (Systemic Action)
as §1, §2, §3
Bean plants (Vicia faba) which are heavily infested by the black bean aphid (Aphis fabae) are watered with in each case 20 ml of the preparation of active compound of the desired concentration so that the preparation of active compound penetrates into the soil without wetting the shoot. The active compound is taken up by the roots and passed on to the shoot.
as §4

Series [7] concerns larvae of the green rice leaf-hopper (Nephotettix cincticeps). The series is described as follows: Nephotettix Test. The series is classed as in vivo. Conditions: active compound concentration 0.1%; dipped rice seedlings; after 6 days. Here is the method: as §1, §2, §3
Rice seedlings (Oryza sativa) are treated by being dipped into the preparation of active compound of the desired concentration and are populated with larvae of the green rice leaf-hopper (Nephotettix cincticeps) while the seedlings are still moist.
After the desired period of time, the kill in % is determined. 100% means that all leaf-hoppers have been killed; 0% means that none of the leaf-hoppers has been killed.

For series [8], the system named is Lucilia cuprina larvae. In words: Blowfly Larvae Test/development-inhibitory Action. The series is classed as in vivo. The following applies: active compound concentration 100 ppm; flies hatched after 1.5 times the development period of untreated control. As to the method:
Blowfly Larvae Test/development-inhibitory Action
Test animals: Lucilia cuprina larvae
Solvent: Dimethyl sulfoxide
20 mg of active compound are dissolved in 1 ml of dimethyl sulfoxide, more dilute concentrations are prepared by dilution with Dest.H2O.
About 20 Lucilia cuprina larvae are introduced into a test tube which contains about 1 cm^3 of horse meat and 0.5 ml of the preparation of active compound to be tested. After 24 hours and 48 hours, the effectiveness of the preparation of active compound is determined. The test tubes are transferred into beakers whose bottom is covered with sand. After a further 2 days, the test tubes are removed and the pupae are counted.
The effect of the preparation of active compound is assessed by the number of flies which have hatched after 1.5 times the development period of an untreated control. 100% means that no flies have hatched; 0% means that all flies have hatched normally.

Test in series [9]: not given
The source holds these as a separate data set.

From patent publication US6503912B1, “Substituted guanidine derivatives” (Bayer Aktiengesellschaft, priority 1998, dated 2003) come the findings set out here.

For `CCOCN1CCN(Cc2cnc(Cl)s2)C1=N[N+](=O)[O-]` [Example 17], the “logP (pH = 2.3)” value is on record as 1.40. The kill in series [1] amounted to 100%. This compound had a kill in series [2] of 100%. In series [3], this compound registered a kill of 100%.

With `CCCCCCCCOCN1CCN(Cc2ccc(Cl)nc2)C1=N[N+](=O)[O-]` [Example 5], the “logP (pH = 2.3)” value turned out to be 3.55. The “kill (root-systemic action)” value in series [4] was 100%. The compound further gave a kill in [5] of 100%. In addition, the kill in series [6] is recorded as 95%.

In the case of `CC(C)COCN1CCN(Cc2cnc(Cl)s2)C1=N[N+](=O)[O-]` [Example 19], the “logP (pH = 2.3)” value was 2.12. The compound further returned a kill in [3] of 100%. Also, in series [7], the kill is reported as 100%.

On to `CC(=O)OCN1CCN(Cc2ccc(Cl)nc2)C1=N[N+](=O)[O-]` [Example 33], for which the kill in series [1], in series [3] and in series [7] was 100% in each case.

With `CCCOCN1CCN(Cc2ccc(Cl)nc2)C1=NC#N` [Example 32], the “logP (pH = 2.3)” value worked out at 1.89.

Turning to `CCN(CC)CCOCN1CCN(Cc2ccc(Cl)nc2)C1=N[N+](=O)[O-]` [Example 43], the “logP (pH = 2.3)” value was 0.70.

Take `CC(C)(C)C(=O)OCN1CCN(Cc2ccc(Cl)nc2)C1=N[N+](=O)[O-]` [Example 25]: the kill in [1], in series [2], in series [3] and in series [7] was 100% throughout.

As to `CC(C)COCN1CCN(Cc2ccc(Cl)nc2)C1=N[N+](=O)[O-]` [Example 13], the “logP (pH = 2.3)” value was determined as 2.00. The compound further gave a kill in [1] of 100%. Moreover, the development-inhibitory effect in series [8] is recorded as 100%. In series [2], the kill was determined as 100%. The kill in [7] came out at 100%.

Turning to `COCCOCN1CCN(Cc2ccc(Cl)nc2)C1=NC#N` [Example 31], the “logP (pH = 2.3)” value is recorded as 1.40.

For the compound `COCn1ccn(Cc2ccc(Cl)nc2)c1=N[N+](=O)[O-]` [Example 9], the “logP (pH = 2.3)” value is recorded as 0.78. The same compound had a development-inhibitory effect in series [8] of 100%. The kill in series [6] was found to be 100%.

Take `O=[N+]([O-])N=C1N(COCCBr)CCN1Cc1ccc(Cl)nc1` [Example 53]: the “logP (pH = 2.3)” value was 1.64.

As for `CCCOCN1CCN(Cc2cnc(Cl)s2)C1=N[N+](=O)[O-]` [Example 2, 1-(2-chloro-thiazol-5-yl-methyl)-2-nitroimino-3-n-propoxymethyl-imidazolidine], the kill in [1] is 100%.

In turn, `CCCCCCCCOCn1ccn(Cc2ccc(Cl)nc2)c1=N[N+](=O)[O-]` [Example 7] returned a kill in [5] of 100%.

The compound `CCCOCn1ccn(Cc2ccc(Cl)nc2)c1=N[N+](=O)[O-]` [Example 11] had a development-inhibitory effect in series [8] of 100%. For the same compound, the kill in series [2] was found to be 100%.

Take `CC(C)OCn1ccn(Cc2ccc(Cl)nc2)c1=N[N+](=O)[O-]` [Example 14]: the kill in series [2] and in series [7] was 100% throughout.

On to `CC(C)OCN1CCN(Cc2ccc(Cl)nc2)C1=N[N+](=O)[O-]` [Example 12], for which the kill in series [1], in [2], in series [3] and in series [7] was 100% throughout. Also, the development-inhibitory effect in series [8] turned out to be 100%.

As to `CCC(=O)OCN1CCN(Cc2ccc(Cl)nc2)C1=N[N+](=O)[O-]` [Example 35], the “logP (pH = 2.3)” value amounted to 1.50. This compound gave a kill in [1] of 100%. Besides, the kill in series [3] was found to be 100%.

In the case of `CCCCOCN1CCN(Cc2ccc(Cl)nc2)C1=N[N+](=O)[O-]` [Example 40], the “logP (pH = 2.3)” value is recorded as 1.98.

In general, melting point refers to the temperature of the solid-liquid transition. Turning to `O=[N+]([O-])/N=c1\n(COCCBr)ccn1Cc1ccc(Cl)nc1`, the melting point in [9] fell in the range of 90 to 92 °C.

As for `CCOCn1ccn(Cc2ccc(Cl)nc2)c1=N[N+](=O)[O-]` [Example 6], the “logP (pH = 2.3)” value stood at 1.09.

For the compound `CC(C)OCN1CCN(Cc2cnc(Cl)s2)C1=N[N+](=O)[O-]` [Example 18], the “logP (pH = 2.3)” value is on record as 1.65. In [1], the kill turned out to be 100%. The same compound showed a kill in series [2] of 100%. In addition, the kill in series [3] is 100%. In series [7], this compound returned a kill of 100%.

In the case of `COCN1CCN(Cc2cnc(Cl)s2)C1=N[N+](=O)[O-]` [Example 16], the “logP (pH = 2.3)” value turned out to be 1.14. In series [2], the kill came to 100%.

Turning to `CCCCOCn1ccn(Cc2ccc(Cl)nc2)c1=N[N+](=O)[O-]` [Example 41], the “logP (pH = 2.3)” value amounted to 1.72.

On to `CCCCCCOCN1CCN(Cc2ccc(Cl)nc2)C1=N[N+](=O)[O-]` [Example 23], for which the “logP (pH = 2.3)” value is reported as 2.73.

The compound `CC(C)OCN1CCN(Cc2ccc(Cl)nc2)C1=NC#N` had a melting point in series [9] of 85 to 87 °C.

Consider `COCN1CCN(Cc2ccc(Cl)nc2)C1=NC#N` [Example 29], for which the “logP (pH = 2.3)” value was determined as 1.32.

Turning to `CC(C)COCn1ccn(Cc2ccc(Cl)nc2)c1=N[N+](=O)[O-]` [Example 15], the kill in [2] and in series [7] was 100% throughout.

`CCC(C)OCN1CCN(Cc2ccc(Cl)nc2)C1=N[N+](=O)[O-]` (stereo not shown) [Example 21]: the “logP (pH = 2.3)” value is reported as 1.86. The kill in series [3] amounted to 100%. The compound further came in with a kill in [7] of 100%.

For the compound `COCCOCN1CCN(Cc2ccc(Cl)nc2)C1=N[N+](=O)[O-]` [Example 24], the “logP (pH = 2.3)” value came to 1.16. The kill in series [7] amounted to 100%.

With `CCCCCOCN1CCN(Cc2ccc(Cl)nc2)C1=N[N+](=O)[O-]` [Example 22], the “logP (pH = 2.3)” value is given as 2.35.

Take `CC(C)(C)COCN1CCN(Cc2ccc(Cl)nc2)C1=N[N+](=O)[O-]` [Example 20]: the kill in [1] and in series [2] was 100% in each case.

As for `CCCOCN1CCN(Cc2ccc(Cl)nc2)C1=N[N+](=O)[O-]` [Example 10], the “logP (pH = 2.3)” value is on record as 1.64. Besides, the kill in [1] is 100%. Besides, the development-inhibitory effect in [8] turned out to be 100%. The kill in series [2] turned out to be 100%. In series [3], this compound registered a kill of 100%. The kill in series [7] is 100%.

Regarding `CC(C)OCN1CCCN(Cc2ccc(Cl)nc2)C1=N[N+](=O)[O-]` [Example 56], the “logP (pH = 2.3)” value is recorded as 1.34.

Consider `CC(C)C(=O)OCN1CCN(Cc2ccc(Cl)nc2)C1=N[N+](=O)[O-]` [Example 36], for which the kill in series [1], in [2], in [3] and in [7] was 100% each time.
